Experimental data published in US20080207708A1, “Oxazole and Thiazole Compounds and Their Use in the Treatment of Pge2 Mediated Disorders” (GLAXO GROUP LIMITED, priority 2005, published 2008).
Counter-ions that a name gives are not always drawn.

How the values were obtained:
EP1 receptors [1] = target: T1, EP1 receptors (Homo sapiens, UniProt P34995); assay: human EP1 calcium mobilisation assay (CHO-K1 cells, FLIPR, PGE2); format: cell-based; set-up: expressed in transfected cells; host or cells: CHO-K1 cells, pCIN vector; settings: free bases or sodium salts; averages of a number of experiments; read-out: functional pKi value, human EP1 calcium mobilisation assay (converted)
T1 sequence (P34995 1-402): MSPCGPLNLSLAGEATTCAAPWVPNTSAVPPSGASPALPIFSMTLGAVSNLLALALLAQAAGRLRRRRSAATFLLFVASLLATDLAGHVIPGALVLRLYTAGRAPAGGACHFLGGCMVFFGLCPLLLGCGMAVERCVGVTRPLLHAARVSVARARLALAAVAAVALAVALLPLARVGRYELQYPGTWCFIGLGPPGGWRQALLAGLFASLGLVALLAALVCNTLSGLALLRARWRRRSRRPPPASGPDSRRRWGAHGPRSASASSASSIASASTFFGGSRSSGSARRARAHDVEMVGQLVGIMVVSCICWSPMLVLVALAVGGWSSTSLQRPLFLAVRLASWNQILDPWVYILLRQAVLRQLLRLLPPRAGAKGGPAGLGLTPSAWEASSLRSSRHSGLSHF
Procedure: Briefly, the antagonist properties of compounds are assessed by their ability to inhibit the mobilisation of intracellular calcium ([Ca^2+]i) in response to activation of EP1 or EP3 receptors by the natural agonist hormone prostaglandin E2 (PGE2). Increasing concentrations of antagonist reduce the amount of calcium that a given concentration of PGE2 can mobilise. The net effect is to displace the PGE2 concentration-effect curve to higher concentrations of PGE2. The amount of calcium produced is assessed using a calcium-sensitive fluorescent dye such as Fluo-4, AM and a suitable instrument such as a Fluorimetric Imaging Plate Reader (FLIPR). Increasing amounts of [Ca^2+]i produced by receptor activation increase the amount of fluorescence produced by the dye and give rise to an increasing signal. The signal may be detected using the FLIPR instrument and the data generated may be analysed with suitable curve-fitting software.
The human EP1 or EP3 calcium mobilisation assay (hereafter referred to as ‘the calcium assay’) utilises Chinese hamster ovary-K1 (CHO-K1) cells into which a stable (pCIN; BioTechniques 20 (1996): 102-110) vector containing either EP1 or EP3 cDNA has previously been transfected. Cells are cultured in suitable flasks containing culture medium such as DMEM:F-12 supplemented with 10% v/v foetal calf serum, 2 mM L-glutamine, 0.25 mg/ml geneticin, 100 μM flurbiprofen and 10 µg/ml puromycin. For assay, cells are harvested using a proprietary reagent that dislodges cells such as Versene. Cells are re-suspended in a suitable quantity of fresh culture media for introduction into a 384-well plate. Following incubation for 24 hours at 37° C. the culture media is replaced with a medium containing Fluo-4 and the detergent pluronic acid, and a further incubation takes place. Concentrations of compounds are then added to the plate in order to construct concentration-effect curves. This may be performed on the FLIPR in order to assess the agonist properties of the compounds. Concentrations of PGE2 are then added to the plate in order to assess the antagonist properties of the compounds. The data so generated may be analysed by means of a computerised curve-fitting routine. The concentration of compound that elicits a half-maximal inhibition of the calcium mobilisation induced by PGE2 (pIC50) may then be estimated.

EP1 receptors [2] = target: T1, EP1 receptors; assay: Binding assay for the human prostanoid EP1 receptor (competition with [3H]-PGE2); set-up: expressed in transfected cells; host or cells: CHO-K1 cells, membrane fraction; settings: [3H]-PGE2 competition; averages of a number of experiments; read-out: pIC50 value, binding assay for the human prostanoid EP1 receptor (converted)
Method in brief: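 Competition against 3 nM (final) tritiated PGE2 at 30° C for 30 min, pH 6 MES assay buffer, using membranes of stably transfected CHO-K1 cells. Filter-retained counts by scintillation; nonlinear curve fitting gives concentration inhibiting 50% of specific binding.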

Compound	Ki (EP1 receptors [1]) [nM]	IC50 (EP1 receptors [2]) [nM]
O=C(O)c1cccc2nc(-c3csc(Cc4cc(Cl)ccc4OCc4ccccc4)n3)[nH]c12 [Example 139, 2-[2-({5-Chloro-2-[(phenylmethyl)oxy]phenyl}methyl)-1,3-thiazol-4-yl]-1H-benzimidazole-4-carboxylic acid]	< 1000	≤ 1000
CC(C)COc1ccc(Cl)cc1C(F)(F)c1nc(-c2nc3ccccc3[nH]2)cs1 [Example 141, 2-{2-[{5-chloro-2-[(2-methylpropyl)oxy]phenyl}(difluoro)methyl]-1,3-thiazol-4-yl}-1H-benzimidazole hydrochloride]	> 1000	≤ 1000
OCc1cccc2nc(-c3csc(Cc4cc(Cl)ccc4OCc4ccccc4)n3)[nH]c12 [Example 143, {2-[2-({5-Chloro-2-[(phenylmethyl)oxy]phenyl}methyl)-1,3-thiazol-4-yl]-1H-benzimidazol-4-yl}methanol hydrochloride]	> 1000	≤ 1000
CN1CCN(c2ccc3nc(-c4csc(Cc5cc(Cl)ccc5OCc5ccccc5)n4)[nH]c3c2)CC1 [Example 148, 2-[2-({5-Chloro-2-[(phenylmethyl)oxy]phenyl}methyl)-1,3-thiazol-4-yl]-5-(4-methyl-1-piperazinyl)-1H-benzimidazole hydrochloride]	< 1000	≤ 31.6
Clc1ccc(OCc2ccccc2)c(Cc2nc(-c3nc4ccc(N5CCOCC5)cc4[nH]3)cs2)c1 [Example 149, 2-[2-({5-Chloro-2-[(phenylmethyl)oxy]phenyl}methyl)-1,3-thiazol-4-yl]-5-(4-morpholinyl)-1H-benzimidazole hydrochloride]	< 1000	≤ 31.6
Clc1ccc(OCc2ccccc2)c(Cc2nc(-c3nc4cc5cn[nH]c5cc4[nH]3)cs2)c1 [Example 150, 6-[2-({5-Chloro-2-[(phenylmethyl)oxy]phenyl}methyl)-1,3-thiazol-4-yl]-1,5-dihydroimidazo[4,5-f]indazolehydrochloride]	< 1000	≤ 31.6
CN1CCN(c2ccc3[nH]c(-c4csc(Cc5cc(Cl)ccc5OCc5ccccc5)n4)nc3n2)CC1 [Example 151, 2-[2-({5-Chloro-2-[(phenylmethyl)oxy]phenyl}methyl)-1,3-thiazol-4-yl]-5-(4-methyl-1-piperazinyl)-1H-imidazo[4,5-b]pyridine hydrochloride]	< 1000	≤ 31.6
CN(C)c1ccc2nc(-c3csc(Cc4cc(Cl)ccc4OCc4ccccc4)n3)[nH]c2n1 [Example 152, 2-[2-({-5-Chloro-2-[(phenylmethyl)oxy]phenyl}methyl)-1,3-thiazol-4-yl]-N,N-dimethyl-1H-imidazo[4,5-b]pyridin-5-amine hydrochloride]	< 1000	≤ 31.6
OCCc1ccc2nc(-c3csc(Cc4cc(Cl)ccc4OCc4ccccc4)n3)[nH]c2c1 [Example 153, 2-{2-[2-({5-Chloro-2-[(phenylmethyl)oxy]phenyl}methyl)-1,3-thiazol-4-yl]-1H-benzimidazol-5-yl}ethanol]	< 1000	≤ 31.6
Cc1nnc(-c2csc(Cc3cc(Cl)ccc3OCc3ccccc3)n2)[nH]1 [Example 159, 3-[2-({5-Chloro-2-[(phenylmethyl)oxy]phenyl}methyl)-1,3-thiazol-4-yl]-5-methyl-1H-1,2,4-triazole]	< 1000	≤ 1000
Clc1ccc(OCc2ccccc2)c(Cc2nc(-c3cn4ccccc4n3)cs2)c1 [Example 160, 2-[2-({5-Chloro-2-[(phenylmethyl)oxy]phenyl}methyl)-1,3-thiazol-4-yl]imidazo[1,2-a]pyridine]	< 1000	≤ 1000
CC(C)COc1ccc(Cl)cc1Nc1nc(-c2nc3ccccc3[nH]2)cs1 [Example 164, 4-(1H-Benzimidazol-2-yl)-N-{5-chloro-2-[(2-methylpropyl)oxy]phenyl}-1,3-thiazol-2-aminehydrochloride]	< 1000	≤ 31.6

The next lines start with the values.

Ki (EP1 receptors [1]) [nM]	IC50 (EP1 receptors [2]) [nM]	Compound
< 1000	≤ 1000	Clc1ccc(OCc2ccccc2)c(Cc2nc(-c3nc4ccc(N5CCCC5)nc4[nH]3)cs2)c1 [Example 137, 2-[2-({5-Chloro-2-[(phenylmethyl)oxy]phenyl}methyl)-1,3-thiazol-4-yl]-5-(1-pyrrolidinyl)-1H-imidazo[4,5-b]pyridinehydrochloride]
< 1000	≤ 31.6	CC(C)COc1ccc(Cl)cc1Cc1nc(-c2nc3ccc(Cl)nc3[nH]2)cs1 [Example 140, 5-Chloro-2-[2-({5-chloro-2-[(2-methylpropyl)oxy]phenyl}methyl)-1,3-thiazol-4-yl]-1H-imidazo[4,5-b]pyridinehydrochloride]
< 1000	≤ 31.6	CC(C)COc1ccc(Cl)cc1Cc1nc(-c2nc3ccc(N4CCN(C)CC4)cc3[nH]2)cs1 [Example 142, 2-[2-({5-Chloro-2-[(2-methylpropyl)oxy]phenyl}methyl)-1,3-thiazol-4-yl]-5-(4-methyl-1-piperazinyl)-1H-benzimidazole hydrochloride]
≤ 31.6	≤ 1000	CC(C)COc1ccc(Cl)cc1Cc1nc(-c2nc3ccc(N4CCOCC4)nc3[nH]2)cs1 [Example 144, 2-[2-({5-Chloro-2-[(2-methylpropyl)oxy]phenyl}methyl)-1,3-thiazol-4-yl]-5-(4-morpholinyl)-1H-imidazo[4,5-b]pyridine]
< 1000	≤ 1000	CC(C)COc1ccc(Cl)cc1Cc1nc(-c2nc3ccc(N4CCCC4)nc3[nH]2)cs1 [Example 145, 2-[2-({5-Chloro-2-[(2-methylpropyl)oxy]phenyl}methyl)-1,3-thiazol-4-yl]-5-(1-pyrrolidinyl)-1H-imidazo[4,5-b]pyridinehydrochloride]
< 1000	≤ 31.6	CC(C)COc1ccc(Cl)cc1Cc1nc(-c2nc3ccc(N4CCN(C)CC4)nc3[nH]2)cs1 [Example 146, 2-[2-({5-chloro-2-[(2-methylpropyl)oxy]phenyl}methyl)-1,3-thiazol-4-yl]-5-(4-methyl-1-piperazinyl)-1H-imidazo[4,5-b]pyridinehydrochloride]
< 1000	≤ 1000	CC(C)COc1ccc(Cl)cc1Cc1nc(-c2nc3ccc(N4CCCCC4)nc3[nH]2)cs1 [Example 147]
≤ 31.6	≤ 31.6	CC(C)COc1ccc(Cl)cc1Cc1nc(-c2nc3ccc(CCO)cc3[nH]2)cs1 [Example 154, 2-{2-[2-({5-Chloro-2-[(2-methylpropyl)oxy]phenyl}methyl)-1,3-thiazol-4-yl]-1H-benzimidazol-5-yl}ethanol]
< 1000	≤ 1000	CC(C)COc1ccc(Cl)cc1Cc1nc(-c2nc3cc(F)c(F)cc3[nH]2)cs1 [Example 155, 2-[2-({5-Chloro-2-[(2-methylpropyl)oxy]phenyl}methyl)-1,3-thiazol-4-yl]-5,6-difluoro-1H-benzimidazole]
< 1000	≤ 1000	Cc1nnc(-c2csc(Cc3cc(Cl)ccc3OCC(C)C)n2)[nH]1 [Example 158, 3-[2-({5-Chloro-2-[(2-methyl-propyl)oxy]-phenyl}methyl)-1,3-thiazol-4-yl]-5-methyl-1H-1,2,4-triazole]
> 1000	≤ 31.6	CC(C)COc1ccc(Cl)cc1Nc1nc(-c2nc3ccc(N4CCN(C)CC4)cc3[nH]2)cs1 [Example 165, N-{5-Chloro-2-[(2-methylpropyl)oxy]phenyl}-4-[5-(4-methyl-1-piperazinyl)-1H-benzimidazol-2-yl]-1,3-thiazol-2-aminetrihydrochloride]
